Experiments:
Experiment in all cases: two-electrode voltage clamp, Xenopus oocytes
[1] = tested on: T1, DopC1 (O. vulgaris); format: cell-based, Octopus vulgaris; conditions: agonist; ND96, -60 mV
T1 construct: full-length cDNA cloned from 1-dph O. vulgaris paralarvae, KSM vector, Xenopus oocytes; homomeric cys-loop channel; LOC number follows O. sinensis annotation

[2] = tested on: T1, DopC1 (O. vulgaris); format: cell-based, Octopus vulgaris; conditions: antagonist; against 10 µM dopamine (~EC50); ND96, -60 mV
[3] = tested on: T2, AChRB1 (O. vulgaris); format: cell-based, Octopus vulgaris; conditions: agonist; ND96, -60 mV
T2 construct: full-length cDNA cloned from 1-dph O. vulgaris paralarvae, KSM vector, Xenopus oocytes; expressed alone (homomeric); LOC number follows O. sinensis annotation

[4] = target: T3, DopC2 from Daphnia magna (Daphnia magna, UniProt A0A0P6GTI1); format: cell-based; conditions: agonist; ND96, -60 mV
T3 construct: gene APZ42_017815; cDNA cloned from adult D. magna RNA, KSM vector, Xenopus oocytes; homomeric; LOC116923538 assigned to DopC2 by printed order only (DopC1 = LOC116927457)
T3 sequence (A0A0P6GTI1 36-620): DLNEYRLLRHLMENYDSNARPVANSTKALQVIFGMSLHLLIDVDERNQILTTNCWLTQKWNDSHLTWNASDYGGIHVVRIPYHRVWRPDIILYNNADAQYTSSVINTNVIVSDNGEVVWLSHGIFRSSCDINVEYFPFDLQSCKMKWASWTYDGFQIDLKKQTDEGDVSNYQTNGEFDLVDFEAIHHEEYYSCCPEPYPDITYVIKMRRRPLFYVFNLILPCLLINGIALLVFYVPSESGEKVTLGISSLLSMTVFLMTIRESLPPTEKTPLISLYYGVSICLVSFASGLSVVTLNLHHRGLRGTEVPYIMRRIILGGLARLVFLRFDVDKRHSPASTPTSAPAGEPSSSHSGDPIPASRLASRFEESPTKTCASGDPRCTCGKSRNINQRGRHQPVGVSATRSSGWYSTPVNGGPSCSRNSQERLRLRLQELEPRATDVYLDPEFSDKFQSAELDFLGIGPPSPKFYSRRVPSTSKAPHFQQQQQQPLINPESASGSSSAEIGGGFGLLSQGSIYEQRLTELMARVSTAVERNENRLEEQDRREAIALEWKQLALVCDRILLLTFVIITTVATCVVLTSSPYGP

[5] = target: T4, DopC1 from Apis mellifera (Apis mellifera, UniProt A0A7M7R6H2); format: cell-based
T4 construct: gene LOC408525; full-length synthetic cDNA (GeneArt), KSM vector, Xenopus oocytes; homomeric channel
T4 sequence (A0A7M7R6H2 91-549): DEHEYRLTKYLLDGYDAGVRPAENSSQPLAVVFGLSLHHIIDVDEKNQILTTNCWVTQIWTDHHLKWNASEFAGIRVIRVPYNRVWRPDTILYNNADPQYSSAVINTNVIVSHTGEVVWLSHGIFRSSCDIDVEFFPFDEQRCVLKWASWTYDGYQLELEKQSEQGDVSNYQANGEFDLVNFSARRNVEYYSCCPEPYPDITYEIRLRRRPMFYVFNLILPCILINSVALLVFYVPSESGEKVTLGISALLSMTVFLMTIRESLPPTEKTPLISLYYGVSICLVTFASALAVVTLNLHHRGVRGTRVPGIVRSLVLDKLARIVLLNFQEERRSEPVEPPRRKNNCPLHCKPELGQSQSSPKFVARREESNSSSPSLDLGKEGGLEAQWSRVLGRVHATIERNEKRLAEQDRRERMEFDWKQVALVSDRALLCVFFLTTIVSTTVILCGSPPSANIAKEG

[6] = target: T5, DopC1 from Daphnia magna (Daphnia magna, UniProt A0A0P5YVQ3); format: cell-based; conditions: agonist; ND96, -60 mV
T5 construct: cDNA cloned from adult D. magna RNA, KSM vector, Xenopus oocytes; homomeric; LOC116927457 assigned to DopC1 by printed order only (DopC2 = LOC116923538)
T5 sequence (A0A0P5YVQ3 24-503): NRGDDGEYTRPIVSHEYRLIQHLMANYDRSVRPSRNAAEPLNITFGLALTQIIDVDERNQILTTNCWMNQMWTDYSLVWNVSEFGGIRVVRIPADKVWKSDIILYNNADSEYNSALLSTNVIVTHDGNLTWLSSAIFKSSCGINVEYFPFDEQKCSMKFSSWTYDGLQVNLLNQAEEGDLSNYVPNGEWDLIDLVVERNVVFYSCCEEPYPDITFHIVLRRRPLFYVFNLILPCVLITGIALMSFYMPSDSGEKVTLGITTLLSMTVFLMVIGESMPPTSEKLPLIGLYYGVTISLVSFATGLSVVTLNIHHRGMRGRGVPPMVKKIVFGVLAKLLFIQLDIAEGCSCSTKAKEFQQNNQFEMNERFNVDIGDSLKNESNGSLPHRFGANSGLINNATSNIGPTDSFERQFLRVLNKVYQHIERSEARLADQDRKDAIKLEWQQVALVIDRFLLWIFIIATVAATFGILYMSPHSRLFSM

[7] = target: T6, DopC1 from Aplysia californica (Aplysia californica, UniProt A0ABM0GHJ1); format: cell-based
T6 construct: gene LOC101853763; full-length synthetic cDNA (GeneArt), KSM vector, Xenopus oocytes; homomeric channel
T6 sequence (A0ABM0GHJ1 25-518): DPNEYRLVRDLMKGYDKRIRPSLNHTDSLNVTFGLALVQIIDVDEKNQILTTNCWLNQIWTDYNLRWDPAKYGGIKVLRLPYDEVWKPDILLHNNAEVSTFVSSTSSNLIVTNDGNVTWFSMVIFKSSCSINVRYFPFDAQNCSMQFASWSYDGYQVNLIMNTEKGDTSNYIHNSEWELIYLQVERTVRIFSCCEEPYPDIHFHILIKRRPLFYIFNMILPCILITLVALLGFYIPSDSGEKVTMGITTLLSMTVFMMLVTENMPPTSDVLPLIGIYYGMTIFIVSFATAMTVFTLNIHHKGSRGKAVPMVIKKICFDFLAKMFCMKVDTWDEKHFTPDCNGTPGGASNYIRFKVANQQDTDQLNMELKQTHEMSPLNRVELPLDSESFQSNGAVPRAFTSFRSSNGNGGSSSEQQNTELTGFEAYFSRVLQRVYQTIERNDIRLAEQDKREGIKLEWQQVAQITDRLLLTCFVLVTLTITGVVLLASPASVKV

SMILES: NCC(O)c1ccc(O)cc1 (racemic) [octopamine]
- EC50 [1]: 18000 µM

SMILES: CN1CCc2cccc3c2[C@H]1Cc1ccc(O)c(O)c1-3 [apomorphine]
- IC50 [2]: 7 µM

SMILES: NCCc1c[nH]c2ccc(O)cc12 [serotonin]
- EC50 [1]: 73 µM

SMILES: C[N+](C)(C)CCO [choline]
- EC50 [3]: 98 µM

SMILES: CC(=O)OCC[N+](C)(C)C [acetylcholine]
- EC50 [3]: 1.9 µM

SMILES: CNCC(O)c1ccc(O)c(O)c1 (racemic) [epinephrine]
- EC50 [1]: 35 µM

SMILES: NCCc1ccc(O)c(O)c1 [dopamine]
- EC50 [4]: 4.6 µM
- EC50 [1]: 7.6 µM
- EC50 [5]: 1.7 µM
- EC50 [6]: 50 µM
- EC50 [7]: 3.5 µM

SMILES: NCC(O)c1ccc(O)c(O)c1 (racemic) [norepinephrine]
- EC50 [4]: 36 µM
- EC50 [1]: 55 µM
- EC50 [5]: 6.3 µM
- EC50 [6]: 82 µM
- EC50 [7]: 8.4 µM

SMILES: NCCc1ccc(O)cc1 [tyramine]
- EC50 [1]: 180 µM

From doi:10.1101/2025.04.02.646353v2, “Novel dopaminergic neurotransmission in the Octopus visual system” (biorxiv, 2025)
